Data from the NIST ThermoML archive (doi:10.1016/j.jct.2009.06.011).
Numbers after ± are expanded uncertainties.

Test: activity coefficient (dimensionless); of the first substance listed, at infinite dilution; xn = mol fraction of the nth substance listed
Settings: 338.15 K; 101 kPa; Liquid; Chromatography; x1 = 0

Row | SMILES | activity coefficient
1 | C#CCCCC [1-hexyne] + CCCC[n+]1ccc(C)cc1.O=S(=O)([N-]S(=O)(=O)C(F)(F)F)C(F)(F)F | 2.46 ± 0.17
2 | C#CCCCCCC [1-octyne] + CCCC[n+]1ccc(C)cc1.O=S(=O)([N-]S(=O)(=O)C(F)(F)F)C(F)(F)F | 4.37 ± 0.3
3 | C=CCCC [1-pentene] + CCCC[n+]1ccc(C)cc1.O=S(=O)([N-]S(=O)(=O)C(F)(F)F)C(F)(F)F | 5.07 ± 0.35
4 | C#CCCC [1-pentyne] + CCCC[n+]1ccc(C)cc1.O=S(=O)([N-]S(=O)(=O)C(F)(F)F)C(F)(F)F | 1.89 ± 0.13
5 | COC(C)(C)C [2-methoxy-2-methylpropane] + CCCC[n+]1ccc(C)cc1.O=S(=O)([N-]S(=O)(=O)C(F)(F)F)C(F)(F)F | 2.08 ± 0.14
6 | CC(C)=O [acetone] + CCCC[n+]1ccc(C)cc1.O=S(=O)([N-]S(=O)(=O)C(F)(F)F)C(F)(F)F | 0.43 ± 0.035
7 | c1ccccc1 [benzene] + CCCC[n+]1ccc(C)cc1.O=S(=O)([N-]S(=O)(=O)C(F)(F)F)C(F)(F)F | 0.75 ± 0.049
8 | CCCCO [butan-1-ol] + CCCC[n+]1ccc(C)cc1.O=S(=O)([N-]S(=O)(=O)C(F)(F)F)C(F)(F)F | 1.87 ± 0.13
9 | C1CCCCCC1 [cycloheptane] + CCCC[n+]1ccc(C)cc1.O=S(=O)([N-]S(=O)(=O)C(F)(F)F)C(F)(F)F | 8.39 ± 0.57
10 | C1CCCCC1 [cyclohexane] + CCCC[n+]1ccc(C)cc1.O=S(=O)([N-]S(=O)(=O)C(F)(F)F)C(F)(F)F | 6.96 ± 0.47
11 | C1CCCCCCC1 [cyclooctane] + CCCC[n+]1ccc(C)cc1.O=S(=O)([N-]S(=O)(=O)C(F)(F)F)C(F)(F)F | 10.4 ± 0.7
12 | C1CCCC1 [cyclopentane] + CCCC[n+]1ccc(C)cc1.O=S(=O)([N-]S(=O)(=O)C(F)(F)F)C(F)(F)F | 5.28 ± 0.36
13 | CCCCCCCCCC [decane] + CCCC[n+]1ccc(C)cc1.O=S(=O)([N-]S(=O)(=O)C(F)(F)F)C(F)(F)F | 37.6 ± 2.6
14 | CCOCC [diethyl ether] + CCCC[n+]1ccc(C)cc1.O=S(=O)([N-]S(=O)(=O)C(F)(F)F)C(F)(F)F | 2.08 ± 0.14
15 | CCCOCCC [dipropyl ether] + CCCC[n+]1ccc(C)cc1.O=S(=O)([N-]S(=O)(=O)C(F)(F)F)C(F)(F)F | 4.54 ± 0.31
16 | CCO [ethanol] + CCCC[n+]1ccc(C)cc1.O=S(=O)([N-]S(=O)(=O)C(F)(F)F)C(F)(F)F | 1.31 ± 0.09
17 | CCc1ccccc1 [ethylbenzene] + CCCC[n+]1ccc(C)cc1.O=S(=O)([N-]S(=O)(=O)C(F)(F)F)C(F)(F)F | 1.5 ± 0.1
18 | CCCCCCC [heptane] + CCCC[n+]1ccc(C)cc1.O=S(=O)([N-]S(=O)(=O)C(F)(F)F)C(F)(F)F | 15.6 ± 1.1
19 | C=CCCCC [hex-1-ene] + CCCC[n+]1ccc(C)cc1.O=S(=O)([N-]S(=O)(=O)C(F)(F)F)C(F)(F)F | 6.37 ± 0.43
20 | CCCCCC [hexane] + CCCC[n+]1ccc(C)cc1.O=S(=O)([N-]S(=O)(=O)C(F)(F)F)C(F)(F)F | 12 ± 0.8
21 | CO [methanol] + CCCC[n+]1ccc(C)cc1.O=S(=O)([N-]S(=O)(=O)C(F)(F)F)C(F)(F)F | 1.08 ± 0.07
22 | CCCCCCCCC [nonane] + CCCC[n+]1ccc(C)cc1.O=S(=O)([N-]S(=O)(=O)C(F)(F)F)C(F)(F)F | 27.6 ± 1.9

Same assay, conditions: 348.15 K; 101 kPa; Liquid; Chromatography; x1 = 0

Row | SMILES | activity coefficient
23 | Cc1ccccc1C [1,2-dimethylbenzene] + CCCC[n+]1ccc(C)cc1.O=S(=O)([N-]S(=O)(=O)C(F)(F)F)C(F)(F)F | 1.3 ± 0.08
24 | Cc1cccc(C)c1 [1,3-dimethylbenzene] + CCCC[n+]1ccc(C)cc1.O=S(=O)([N-]S(=O)(=O)C(F)(F)F)C(F)(F)F | 1.45 ± 0.1
25 | Cc1ccc(C)cc1 [1,4-dimethylbenzene] + CCCC[n+]1ccc(C)cc1.O=S(=O)([N-]S(=O)(=O)C(F)(F)F)C(F)(F)F | 1.45 ± 0.1
26 | C=CCCCCC [1-heptene] + CCCC[n+]1ccc(C)cc1.O=S(=O)([N-]S(=O)(=O)C(F)(F)F)C(F)(F)F | 8.24 ± 0.56
27 | C#CCCCCC [1-heptyne] + CCCC[n+]1ccc(C)cc1.O=S(=O)([N-]S(=O)(=O)C(F)(F)F)C(F)(F)F | 3.28 ± 0.22
28 | C#CCCCC [1-hexyne] + CCCC[n+]1ccc(C)cc1.O=S(=O)([N-]S(=O)(=O)C(F)(F)F)C(F)(F)F | 2.48 ± 0.17
29 | C#CCCCCCC [1-octyne] + CCCC[n+]1ccc(C)cc1.O=S(=O)([N-]S(=O)(=O)C(F)(F)F)C(F)(F)F | 4.36 ± 0.3
30 | C=CCCC [1-pentene] + CCCC[n+]1ccc(C)cc1.O=S(=O)([N-]S(=O)(=O)C(F)(F)F)C(F)(F)F | 4.93 ± 0.34
31 | C#CCCC [1-pentyne] + CCCC[n+]1ccc(C)cc1.O=S(=O)([N-]S(=O)(=O)C(F)(F)F)C(F)(F)F | 1.91 ± 0.13
32 | COC(C)(C)C [2-methoxy-2-methylpropane] + CCCC[n+]1ccc(C)cc1.O=S(=O)([N-]S(=O)(=O)C(F)(F)F)C(F)(F)F | 2.1 ± 0.14
33 | CC(C)=O [acetone] + CCCC[n+]1ccc(C)cc1.O=S(=O)([N-]S(=O)(=O)C(F)(F)F)C(F)(F)F | 0.438 ± 0.035
34 | c1ccccc1 [benzene] + CCCC[n+]1ccc(C)cc1.O=S(=O)([N-]S(=O)(=O)C(F)(F)F)C(F)(F)F | 0.767 ± 0.05
35 | CCCCO [butan-1-ol] + CCCC[n+]1ccc(C)cc1.O=S(=O)([N-]S(=O)(=O)C(F)(F)F)C(F)(F)F | 1.71 ± 0.11
36 | C1CCCCCC1 [cycloheptane] + CCCC[n+]1ccc(C)cc1.O=S(=O)([N-]S(=O)(=O)C(F)(F)F)C(F)(F)F | 7.9 ± 0.54
37 | C1CCCCC1 [cyclohexane] + CCCC[n+]1ccc(C)cc1.O=S(=O)([N-]S(=O)(=O)C(F)(F)F)C(F)(F)F | 6.54 ± 0.45
38 | C1CCCCCCC1 [cyclooctane] + CCCC[n+]1ccc(C)cc1.O=S(=O)([N-]S(=O)(=O)C(F)(F)F)C(F)(F)F | 9.81 ± 0.67
39 | C1CCCC1 [cyclopentane] + CCCC[n+]1ccc(C)cc1.O=S(=O)([N-]S(=O)(=O)C(F)(F)F)C(F)(F)F | 5.03 ± 0.34
40 | CCCCCCCCCC [decane] + CCCC[n+]1ccc(C)cc1.O=S(=O)([N-]S(=O)(=O)C(F)(F)F)C(F)(F)F | 34.6 ± 2.4
41 | CCOCC [diethyl ether] + CCCC[n+]1ccc(C)cc1.O=S(=O)([N-]S(=O)(=O)C(F)(F)F)C(F)(F)F | 2.09 ± 0.14
42 | CCCOCCC [dipropyl ether] + CCCC[n+]1ccc(C)cc1.O=S(=O)([N-]S(=O)(=O)C(F)(F)F)C(F)(F)F | 4.45 ± 0.3
43 | CCO [ethanol] + CCCC[n+]1ccc(C)cc1.O=S(=O)([N-]S(=O)(=O)C(F)(F)F)C(F)(F)F | 1.21 ± 0.08
44 | CCc1ccccc1 [ethylbenzene] + CCCC[n+]1ccc(C)cc1.O=S(=O)([N-]S(=O)(=O)C(F)(F)F)C(F)(F)F | 1.52 ± 0.1
45 | CCCCCCC [heptane] + CCCC[n+]1ccc(C)cc1.O=S(=O)([N-]S(=O)(=O)C(F)(F)F)C(F)(F)F | 14.7 ± 1
46 | C=CCCCC [hex-1-ene] + CCCC[n+]1ccc(C)cc1.O=S(=O)([N-]S(=O)(=O)C(F)(F)F)C(F)(F)F | 6.17 ± 0.42
47 | CCCCCC [hexane] + CCCC[n+]1ccc(C)cc1.O=S(=O)([N-]S(=O)(=O)C(F)(F)F)C(F)(F)F | 11.4 ± 0.8
48 | CO [methanol] + CCCC[n+]1ccc(C)cc1.O=S(=O)([N-]S(=O)(=O)C(F)(F)F)C(F)(F)F | 1 ± 0.06
49 | CCCCCCCCC [nonane] + CCCC[n+]1ccc(C)cc1.O=S(=O)([N-]S(=O)(=O)C(F)(F)F)C(F)(F)F | 25.6 ± 1.8

Same assay, conditions: 358.15 K; 101 kPa; Liquid; Chromatography; x1 = 0

Row | SMILES | activity coefficient
50 | Cc1ccccc1C [1,2-dimethylbenzene] + CCCC[n+]1ccc(C)cc1.O=S(=O)([N-]S(=O)(=O)C(F)(F)F)C(F)(F)F | 1.32 ± 0.09
51 | Cc1cccc(C)c1 [1,3-dimethylbenzene] + CCCC[n+]1ccc(C)cc1.O=S(=O)([N-]S(=O)(=O)C(F)(F)F)C(F)(F)F | 1.48 ± 0.1
